Experimental data as given in the NIST ThermoML archive (doi:10.1016/j.jct.2016.09.007).

Test: xn = mol fraction of the nth substance listed
Conditions: 93.2 kPa, Liquid; for speed of sound: Frequency=3 MHz, Sing-around technique in a fixed-path interferometer; for mass density: Vibrating tube method

CCCC(=O)[O-].CCCC[NH3+] [n-butylammonium butanoate] + CCO
Conditions | mass density, 293.15 K [kg/m3] | mass density, 298.15 K [kg/m3] | mass density, 303.15 K [kg/m3] | mass density, 308.15 K [kg/m3] | mass density, 313.15 K [kg/m3] | speed of sound, 293.15 K [m/s] | speed of sound, 298.15 K [m/s] | speed of sound, 303.15 K [m/s] | speed of sound, 308.15 K [m/s] | speed of sound, 313.15 K [m/s]
x1 = 0.0512 | 814.143 | 810.002 | 805.829 | 801.613 | 797.355 | 1199 | 1182 | 1165 | 1148.2 | 1131.5
x1 = 0.1009 | 832.02 | 828.016 | 823.986 | 819.912 | 815.802 | 1227.7 | 1210.7 | 1193.8 | 1177 | 1160.4
x1 = 0.1503 | 846.238 | 842.335 | 838.406 | 834.444 | 830.445 | 1251.6 | 1234.6 | 1217.8 | 1201.1 | 1184.5
x1 = 0.1994 | 858.208 | 854.396 | 850.551 | 846.681 | 842.738 | 1272.7 | 1255.7 | 1238.9 | 1222.2 | 1205.7
x1 = 0.2504 | 868.474 | 864.721 | 860.912 | 857.053 | 853.31 | 1291.1 | 1274.2 | 1257.4 | 1240.8 | 1224.2
x1 = 0.2982 | 876.405 | 872.722 | 869.017 | 865.27 | 861.491 | 1306 | 1289.1 | 1272.3 | 1255.7 | 1239.2
x1 = 0.3495 | 883.788 | 880.151 | 876.505 | 872.836 | 869.15 | 1320 | 1303.1 | 1286.3 | 1269.7 | 1253.3
x1 = 0.399 | 890.046 | 886.464 | 882.862 | 879.217 | 875.544 | 1332.2 | 1315.3 | 1298.5 | 1282 | 1265.5
x1 = 0.4372 | 894.397 | 890.847 | 887.284 | 883.704 | 880.105 | 1340.7 | 1323.8 | 1307.1 | 1290.5 | 1274.1
x1 = 0.4992 | 900.42 | 896.912 | 893.396 | 889.863 | 886.306 | 1352.8 | 1335.9 | 1319.2 | 1302.6 | 1286.2
x1 = 0.547 | 904.601 | 901.123 | 897.636 | 894.139 | 890.621 | 1361.5 | 1344.5 | 1327.7 | 1311.2 | 1294.8
x1 = 0.6017 | 908.757 | 905.303 | 901.834 | 898.348 | 894.849 | 1370.4 | 1353.3 | 1336.5 | 1319.9 | 1303.6
x1 = 0.649 | 912.071 | 908.66 | 905.237 | 901.798 | 898.346 | 1377.6 | 1360.5 | 1343.6 | 1326.9 | 1310.6
x1 = 0.6917 | 914.76 | 911.378 | 907.983 | 904.574 | 901.145 | 1384 | 1366.7 | 1349.7 | 1333 | 1316.6
x1 = 0.7436 | 917.782 | 914.431 | 911.071 | 907.692 | 904.29 | 1391.5 | 1373.9 | 1356.7 | 1339.9 | 1323.4
x1 = 0.7901 | 920.284 | 916.95 | 913.616 | 910.264 | 906.897 | 1398.2 | 1380.2 | 1362.8 | 1345.9 | 1329.3
x1 = 0.8493 | 923.093 | 919.763 | 916.446 | 913.124 | 909.786 | 1406.5 | 1388 | 1370.2 | 1352.9 | 1336.2
x1 = 0.8904 | 924.887 | 921.547 | 918.232 | 914.921 | 911.604 | 1412.5 | 1393.5 | 1375.2 | 1357.7 | 1340.7
x1 = 0.94 | 927.026 | 923.73 | 920.395 | 917.09 | 913.789 | 1420.7 | 1400.8 | 1382 | 1364 | 1346.7
x1 = 1 | 928.794 | 925.509 | 922.217 | 918.88 | 915.567 | 1431.5 | 1410.3 | 1390.4 | 1371.5 | 1353.6

CCCC(=O)[O-].CCCC[NH3+] [n-butylammonium butanoate] + CCCCCO
Conditions | mass density, 293.15 K [kg/m3] | mass density, 298.15 K [kg/m3] | mass density, 303.15 K [kg/m3] | mass density, 308.15 K [kg/m3] | mass density, 313.15 K [kg/m3] | speed of sound, 293.15 K [m/s] | speed of sound, 298.15 K [m/s] | speed of sound, 303.15 K [m/s] | speed of sound, 308.15 K [m/s] | speed of sound, 313.15 K [m/s]
x1 = 0.0504 | 824.946 | 821.27 | 817.568 | 813.834 | 810.063 | 1301.5 | 1284.3 | 1267.3 | 1250.4 | 1233.7
x1 = 0.1004 | 834.049 | 830.391 | 826.701 | 822.985 | 819.232 | 1308.8 | 1291.6 | 1274.6 | 1257.6 | 1240.9
x1 = 0.1491 | 842.19 | 838.55 | 834.886 | 831.191 | 827.462 | 1315.5 | 1298.2 | 1281.2 | 1264.2 | 1247.4
x1 = 0.2025 | 850.502 | 846.885 | 843.247 | 839.579 | 835.881 | 1322.6 | 1305.3 | 1288.2 | 1271.2 | 1254.4
x1 = 0.2513 | 857.492 | 853.902 | 850.29 | 846.65 | 842.977 | 1328.8 | 1311.6 | 1294.5 | 1277.5 | 1260.7
x1 = 0.3007 | 864.133 | 860.568 | 856.983 | 853.372 | 849.736 | 1335 | 1317.8 | 1300.7 | 1283.7 | 1267
x1 = 0.3506 | 870.527 | 866.989 | 863.432 | 859.854 | 856.248 | 1341.3 | 1324.1 | 1307.1 | 1290.2 | 1273.4
x1 = 0.4003 | 876.48 | 872.967 | 869.437 | 865.888 | 862.315 | 1347.5 | 1330.3 | 1313.3 | 1296.4 | 1279.8
x1 = 0.4485 | 881.984 | 878.492 | 874.989 | 871.466 | 867.921 | 1353.3 | 1336.2 | 1319.2 | 1302.4 | 1285.7
x1 = 0.4981 | 887.228 | 883.761 | 880.283 | 876.786 | 873.27 | 1359.2 | 1342.1 | 1325.1 | 1308.3 | 1291.8
x1 = 0.549 | 892.419 | 888.971 | 885.516 | 882.044 | 878.557 | 1365.4 | 1348.2 | 1331.3 | 1314.5 | 1298
x1 = 0.5979 | 897.108 | 893.686 | 890.251 | 886.802 | 883.336 | 1371.3 | 1354.1 | 1337.1 | 1320.3 | 1303.8
x1 = 0.6483 | 901.8 | 898.401 | 894.993 | 891.566 | 888.123 | 1377.6 | 1360.3 | 1343.3 | 1326.5 | 1310
x1 = 0.6971 | 906.089 | 902.72 | 899.338 | 895.935 | 892.514 | 1383.8 | 1366.4 | 1349.3 | 1332.5 | 1315.9
x1 = 0.7444 | 910.065 | 906.721 | 903.359 | 899.982 | 896.583 | 1389.8 | 1372.2 | 1355 | 1338.1 | 1321.6
x1 = 0.7997 | 914.585 | 911.263 | 907.929 | 904.583 | 901.213 | 1397.4 | 1379.5 | 1362 | 1345 | 1328.3
x1 = 0.8466 | 918.226 | 914.903 | 911.586 | 908.265 | 904.921 | 1404.4 | 1386 | 1368.2 | 1350.9 | 1334.1
x1 = 0.901 | 922.256 | 918.92 | 915.606 | 912.298 | 908.979 | 1413 | 1394 | 1375.7 | 1358 | 1341
x1 = 0.9495 | 925.7 | 922.407 | 919.075 | 915.767 | 912.465 | 1421.1 | 1401.3 | 1382.5 | 1364.4 | 1347
x1 = 1 | 928.794 | 925.509 | 922.217 | 918.88 | 915.567 | 1431.5 | 1410.3 | 1390.4 | 1371.5 | 1353.6
